We go through five compounds from US20100150842A1, “Method and Kit for Detecting Resistance in Living Organisms” (priority 2007, published 2010).

Read-outs that look alike come from different tables or passages of the source.

The conditions of data set [1]: cited from earlier work.
Data set [2] relates to fish and aquatic invertebrates. To be noted: water bodies; cited from earlier work.
Data set [3] relates to Stellaria media SU-susceptible and SU-resistant biotype. The data set can be described thus: Biomarker pattern (HPPC) in extracts of Stellaria media exposed to iodosulfuron. In kind it is in vivo. The settings on record: for number of type B biomarkers detected in extracts of susceptible plants: 50% of recommended field dose. How it is done: A SU-susceptible and SU-resistant biotype of Stellaria media was cultivated outdoors in 2-litre pots. At the 4-5 leaf stage the plants were exposed to iodosulfuron (IOD) applied in mixture with a methylated vegetable oil (Renol). Iodosulfuron was applied at 50% of the recommended field dose. The plants were harvested 4, 7 and 14 days after exposure. Immediately after harvest the plants were frozen and freeze-dried.
Freeze-dried plant material (50 mg per ml of 75% ethanol) was extracted in ultrasonic bath with ice for two hours. The extracts were centrifuged before analysis.
A biomarker pattern was detected as phytochemical changes in plant extracts. A comparison of the extracts of an un-treated susceptible (Biotype 1) and an untreated resistant (Biotype 2) of Stellaria media is shown as biomarkers type A. See further description in Example 3.
A comparison of extracts of the same biotypes exposed to iodosulfuron is shown as biomarkers type B. See further description in Example 3.
High Performance Planar Chromatography (HPPC)-systems were used to detect the two types of biomarkers.

Data set [4] has as its system Stellaria media sensitive and target resistant biotypes. The data set can be described thus: TLC analysis of Stellaria media extracts, unexposed and exposed to Hussar OD. In kind it is in vivo. The text has this:
S0=ID 1 Biotype 1 sensitive control S1=ID 1 Biotype 1 sensitive exposed to 1N Hussar OD+0.5 I/ha Renol R10=ID 9 Biotype 2 Target resistant control R11=ID 9 Biotype 2 Target resistant exposed to 1N Hussar OD+0.5 I/ha Renol R110=ID 9 Biotype 2 Target resistant exposed to 10N Hussar OD+0.5 I/ha Renol R20=ID 102 Biotype 3 Target resistant exposed control R21=ID 102 Biotype 3 Target resistant exposed to 1N Hussar OD+0.5 I/ha Renol R210=ID 102 Biotype 3 Target resistant exposed to 10N Hussar OD+0.5 I/ha Renol
Et=100 mg freeze-dried plant material in 4.00 ml 80% Ethanol extracted for 20 min. in ultrasonic bath (Réalisation Etudes Ultra Son (REUS), 16, allée des Cystes, 06390 Contes, France).
Aq=50 mg freeze-dried plant material in 4.00 ml 80% Ethanol extracted for 20 min. in ultrasonic bath (Réalisation Etudes Ultra Son (REUS), 16, allée des Cystes, 06390 Contes, France)+200 it EtOH after filtration.
The extracts (10 μl) were applicated on Silicagel 60 Merck 1.05721 (10×20 cm) or (5 μl) Cellulose aluminium Merck 1.05552.0001 with together with the reference T=1 0/00× in ethanol using a TLC Automatic TLC Sampler III.

The subject of data set [5] is Papaver rhoeas sensitive and target resistant biotypes. The data set is described as follows: TLC analysis of Papaver rhoeas extracts, unexposed and exposed to Hussar OD. Format: in vivo. An excerpt: S0=ID 150 Biotype 4 sensitive control S1=ID 150 Biotype 4 sensitive exposed to 1N Hussar OD+0.5 I/ha Renol R0=ID 397 Biotype 5 Target resistant control R1=ID 397 Biotype 5 Target resistant exposed to 1N Hussar OD+0.5 I/ha Renol R10=ID 397 Biotype 5 Target resistant exposed to 10N Hussar OD+0.5 I/ha Renol R20=ID 248 Biotype 6 Target resistant exposed control R21=ID 248 Biotype 6 Target resistant exposed to 1N Hussar OD+0.5 I/ha Renol R210=ID 248 Biotype 6 Target resistant exposed to 10N Hussar OD+0.5 I/ha Renol R30=ID 406 Biotype 12 Target resistant exposed control R31=ID 406 Biotype 12 Target resistant exposed to 1N Hussar OD+0.5 I/ha Renol R310=ID 406 Biotype 12 Target resistant exposed to 10N Hussar OD+0.5 I/ha Renol
100 mg freeze-dried plant material (Papaver rhoeas (Papaveraceae) in 4.00 ml 80% Ethanol extracted for 20 min. in ultrasonic bath (Realisation Etudes Ultra Son (REUS), 16, allée des Cystes, 06390 Contes, France). The extract was filtered through GELMAN GHP Agrodisc 13 0.45 μm.
The extracts (20 μl) were applicated on Silicagel 60 Merck 1.05721 (10×20 cm) or (10 μl) Cellulose aluminium Merck 1.05552.0001 together with the reference 1 0/00 papaverin in ethanol using a TLC Automatic TLC Sampler III.
TLC 5) Plate: Cellulose; Solvent: 2% Acetic acid in Water. The results can be seen in FIG. 7.
Detection: UV 366 nm after derivatisation with NEU+PEG is seen in FIG. 7b.

Data set [6] has as its system SU-resistant Stellaria media biotypes. The data set is described as follows: Resistance factors of SU-resistant Stellaria media biotypes to herbicides (ratio of ED50 values). In kind it is in vivo.
Excerpt: The sensitivity to a specific herbicide of each biotype can be tested by determining the amount of herbicide needed to reduce the biomass to 50% of the non-treated plants of the same biotype. When comparing sensitivity among biotypes the “resistance factor” can be used to characterise the sensitivity.
The “resistance factor” is used to characterize the extent of susceptibility and resistance of a species to a herbicide. Resistance factors are typically represented as a ration of ED50 values for different biotypes.
The resistance factor is the ratio of the ED50 value of the resistant and susceptible biotypes.
Results from a study with 6 SU-resistant (Sulfonylurea-resistant) Stellaria media biotypes are included.

In the case of `N#Cc1cc(Br)c(O)c(Br)c1` [Bromoxynil], the half-life result in data set [1] (most soil types) was “two”.

For the compound `CCC(CC)Nc1c([N+](=O)[O-])cc(C)c(C)c1[N+](=O)[O-]` [Pendimethalin], the toxicity to fish entry in data set [2] was “toxic”.

For `O=C(O)CNCP(=O)(O)O` [Glyphosate], the half-life in data set [1] (degraded by rapid microbial action) was 3-5 weeks.

`COc1nc(C)nc(NC(=O)NS(=O)(=O)c2cc(I)ccc2C(=O)O)n1` [iodosulfuron]: the “number of type B biomarkers detected in extracts of susceptible plants” value in data set [3] (7 and 14 days after exposure) was 7; in data set [3] (4 days after exposure), “Five”. The “unique biomarker pattern in extracts” value in data set [3] (SU-resistant Stellaria media biotype) was “absent”; in data set [3] (susceptible Stellaria media biotype, 4, 7 and 14 days after exposure), “detected”. The “new flavonoid in plant extract (TLC)” value in data set [4] (Stellaria media sensitive plant exposed) was “present”; in data set [4] (Stellaria media target resistant biotypes, only at very high exposure concentrations (10N)), “not present”; in data set [5] (Papaver rhoeas biotypes of the target resistant plants) it was “not present”; in data set [5] (Papaver rhoeas sensitive plant exposed) it was “present”.

On to `COc1ncc(F)c2nc(S(=O)(=O)Nc3c(F)cccc3F)nn12` [florasulam], for which the “cross-resistance of SU-resistant biotypes” value in data set [6] was “could not be confirmed”.
